Assay results taken from patent publication US9713613B2, “Methods and compositions for the treatment of cancer and related hyperproliferative disorders” (priority 2007, dated 2017).

Legend:
mice (129Sv background) = experiment: mice, 48 hrs fasting / 48 hrs refeeding fat free diet; format: in vivo
Procedure: The drug-like chemical structure of fatostatin A prompted the inventors to investigate its ability to inhibit SREBP-1 in the liver of whole animals. The effect of fatostatin A on hepatic SREBP-1 under lipogenic conditions of prolonged fasting (48 hours) followed by feeding fat free high carbohydrate diet for another 48 hours was examined. Mice were intraperitoneally injected with fatostatin A at 30 mg/kg/day for 5 days starting one day prior to the 48-hour fasting period. After 48 hours of fasting, the treated group lost more weight than the control group did (6.12±0.6 compared to 4.9±0.3 gram/mouse; p=0.01.) (FIG. 6A).
The expression levels of SREBP-1 in the liver extracts were examined by western blots. […] The hepatic expression of fatty acid synthase (FAS), a representative of SREBP-1-responsive lipogenic enzymes (Boizard et al., 1998), was also determined after the treatment. […] The activity of acetyl-CoA carboxylase (ACC) (FIG. 6F), which is also regulated by SREBP-1, decreased in liver extracts as observed for FAS (FIG. 6G).
Male mice (129Sv background) were housed under controlled conditions (12-hr light/dark cycle; 25° C.) in the Animal Care Center at Baylor College of Medicine and had ad libitum access to standard laboratory chow (Purina Mills) and water. Fatostatin A was administered intraperitoneally (30 mg/kg; 150 μL) to 5-6 month old male mice (129Sv background) using two different protocols. First protocol involves fasting the mice for 48 hrs, followed by refeeding fat free diet for another 48 hrs. This treatment induces both activities and levels of lipogenic enzymes such as ACC and FAS in addition to SREBPs. The administration of fatostatin A or 10% DMSO in PBS to control groups (n=5) started 24 hrs before the fasting and continued daily until the end of the experiment.
In the second protocol, two groups of male mice (n=5) were treated daily for two weeks with either 30 mg/kg fatostatin A or 10% DMSO in PBS. Food intake and body weight were measured daily. At the end of the experiments, the mice were briefly fasted for 4-5 hrs, and their blood was withdrawn for determination of serum constituents. The mice were then sacrificed, and their livers were quickly removed and ground to powder in liquid nitrogen. The powdered tissues were suspended in 10 ml of PBS containing 0.1 mM PMSF, 5 mM benzamidine, and 5 mg/mL protease inhibitor cocktail (Roche), homogenized using Polytron (3×30 Sec, at a high speed), and sonicated briefly to degrade DNA. The extracts were clarified by centrifugation at 16,000×g for 20 min. The samples were then subjected to western blot analysis using commercially available antibodies against FAS and SREBP-1. FAS and ACC activities were determined as described earlier (Mao et al., 2006).

SREBP-2 = experiment: Western blot analysis of SREBP processing in CHO-K1 cells; format: cell-based, Chinese hamster
Excerpt: To determine if fatostatin affects the ER-Golgi translocation and proteolytic processing of SREBPs, a reporter assay developed by Sakai et al. (1998) was used. PLAP-BP2 in transfected CHO-K1 cells remains membrane-bound unless it is cleaved by S1P in the Golgi and secreted into the culture medium. In the assay, a secreted alkaline phosphatase, fused with an SREBP-2 fragment lacking the NH2-terminal DNA-binding domain (PLAP-BP2513-1141), permits monitoring of translocation and processing through changes in the fluorescence of a fluorogenic phosphatase substrate (FIG. 18C). When cells were co-transfected with plasmids encoding PLAP-BP2513-1141 and SCAP, PLAP phosphatase was secreted, generating fluorescence signals. […] The fatostatin-mediated inhibition of SREBP activation was confirmed by western blot analysis of SREBPs. […] Similar results were obtained for SREBP-1 (FIG. 22).
Western blot analysis of SREBP processing. […] The protein concentration of each total cell extract was measured (BCA kit; Pierce), after which a 22-33 μg aliquot of cell extract was mixed with 0.25 volume of buffer (250 mM Tris-HCl, pH 6.8, 10% SDS, 25% glycerol, 0.2% (w/v) bromophenol blue, and 5% (v/v) 2-mercaptoethanol), heated for 7 min at 95° C. […]

HePG2 cells = experiment: HePG2 cell growth, SREBP-1 western blot; format: cell-based, human
Procedure: Cells were seeded onto 16 well plates at a density of 100000 cells/well in medium containing 2% charcoal stripped serum. After 24 hours, compound 19 was added to the cells at the indicated concentrations for another 48 hours. […] Values are depicted as means±SD; *P<0.05.

Row | Structure (SMILES) | decrease of FAS expression level in liver extracts (western blot) (mice (129Sv background); 30 mg/kg/day ip) | food intake and toxicity during the treatment (mice (129Sv background); 30 mg/kg/day ip for 5 days) | weight lost after 48 hours of fasting (mice (129Sv background); 30 mg/kg/day ip, control 4.9±0.3) [gram/mouse] | serum glucose (mice (129Sv background); after 48 hours of refeeding fat free high carbohydrate diet, control 137±14) [mg/dL] | serum LDL (mice (129Sv background); after 48 hours of refeeding, control 30±6) [mg/dL] | serum cholesterol (mice (129Sv background); after 48 hours of refeeding, control 120±19) [mg/dL] | amounts of mature and precursor forms of SREBP-2 (western blot) (SREBP-2) | level of mature and precursor forms of SREBP-1 (western blot) (HePG2 cells; 25 μM, HePG2 cells) | toxicity, morphology and growth of treated cells (HePG2 cells; 25, 50 and 100 μM, 48 hours)
1 | CCCc1cc(-c2nc(-c3ccc(C)cc3)cs2)ccn1 [Compound 1, 2-propyl-4-(4-p-tolylthiazol-2-yl)pyridine] | up to 30% | No reduction of food intake or obvious toxicity | 6.12±0.6 | 110 ± 23 | 16 ± 5 | 93 ± 20 | decreased the amount of the 68 KDa mature form of SREBP-2 |  | 
2 | CCCc1cc(-c2nc(-c3ccc(NS(C)(=O)=O)cc3)cs2)ccn1 [Compound 19, N-(4-(2-(2-propylpyridin-4-yl)thiazol-4-yl)phenyl)methanesulfonamide] |  |  |  |  |  |  |  | significant decrease in the level of the mature and active form | high level of toxicity
